For one molecule, Kd results are on record in PMC12247293 (Journal of Translational Medicine, 2025).

This assay has as its target STAT3 (Homo sapiens, UniProt P40763). The assay is described as follows: SPR. It is filed as binding.

STAT3, sequence (P40763 2-770): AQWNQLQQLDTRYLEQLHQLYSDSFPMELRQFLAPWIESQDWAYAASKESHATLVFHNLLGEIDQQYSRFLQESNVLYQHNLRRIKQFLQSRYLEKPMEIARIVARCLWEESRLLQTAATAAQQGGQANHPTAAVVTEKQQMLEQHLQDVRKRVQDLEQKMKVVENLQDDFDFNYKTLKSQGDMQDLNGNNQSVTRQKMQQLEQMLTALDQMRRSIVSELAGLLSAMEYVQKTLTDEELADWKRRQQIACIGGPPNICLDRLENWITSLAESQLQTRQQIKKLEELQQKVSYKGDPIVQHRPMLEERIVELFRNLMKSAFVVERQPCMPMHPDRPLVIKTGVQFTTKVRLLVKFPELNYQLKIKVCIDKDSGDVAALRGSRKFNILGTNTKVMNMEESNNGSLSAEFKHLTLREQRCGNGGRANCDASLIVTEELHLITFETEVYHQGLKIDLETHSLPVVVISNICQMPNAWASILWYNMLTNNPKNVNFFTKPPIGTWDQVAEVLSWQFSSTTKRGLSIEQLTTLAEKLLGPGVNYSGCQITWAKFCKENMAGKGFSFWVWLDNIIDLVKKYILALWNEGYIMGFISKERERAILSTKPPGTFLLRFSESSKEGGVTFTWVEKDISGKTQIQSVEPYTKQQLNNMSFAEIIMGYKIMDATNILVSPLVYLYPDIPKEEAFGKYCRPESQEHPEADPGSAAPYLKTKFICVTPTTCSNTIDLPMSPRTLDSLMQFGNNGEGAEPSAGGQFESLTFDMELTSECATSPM

`Fc1ccc(-n2cc(CCCCN3CCC4(CC3)OCc3ccccc34)c3ccccc32)cc1` [Siramesine] had a Kd of 871 µM.

What is called Kd is the equilibrium constant for the complex coming apart. Read a low Kd as a tighter complex.
